In test [1] the target is T1, human Nav1.7 (Homo sapiens, UniProt Q15858).
T1 construct: expressed in transfected cells
In words: PatchXpress sodium current measurement, inactivated state block, Nav1.7. Format: cell-based. Particulars: channels stably expressed in HEK 293 cells, double-pulse protocol, 22° C., read-out: potency for the Nav 1.7 sodium ion channel (1.7=). The gist of the method: (§1)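 HEK293 cells stably expressing channel; automated patch clamp at 22 °C, double-pulse protocol: hold 20 mV below V½ inactivation, 8000 ms prepulse 7 mV above V½, 2 ms step to −120 mV, 20 ms test pulse to −20 mV. CsF-based internal (pH 7.3), NMDG/40 mM NaCl external (pH 7.5). Rundown-corrected % inhibition (≥2 concentrations) fitted to Hill equation for IC50.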

Test [2] concerns the target T2, human Nav1.5 (Homo sapiens, UniProt Q14524).
T2 construct: expressed in transfected cells
The test can be described thus: PatchXpress sodium current measurement, inactivated state block, Nav1.5. Particulars: determined by PatchXpress measurement, HEK 293 cells. Format: cell-based. The gist of the method: as §1

T2 sequence (Q14524 whole entry): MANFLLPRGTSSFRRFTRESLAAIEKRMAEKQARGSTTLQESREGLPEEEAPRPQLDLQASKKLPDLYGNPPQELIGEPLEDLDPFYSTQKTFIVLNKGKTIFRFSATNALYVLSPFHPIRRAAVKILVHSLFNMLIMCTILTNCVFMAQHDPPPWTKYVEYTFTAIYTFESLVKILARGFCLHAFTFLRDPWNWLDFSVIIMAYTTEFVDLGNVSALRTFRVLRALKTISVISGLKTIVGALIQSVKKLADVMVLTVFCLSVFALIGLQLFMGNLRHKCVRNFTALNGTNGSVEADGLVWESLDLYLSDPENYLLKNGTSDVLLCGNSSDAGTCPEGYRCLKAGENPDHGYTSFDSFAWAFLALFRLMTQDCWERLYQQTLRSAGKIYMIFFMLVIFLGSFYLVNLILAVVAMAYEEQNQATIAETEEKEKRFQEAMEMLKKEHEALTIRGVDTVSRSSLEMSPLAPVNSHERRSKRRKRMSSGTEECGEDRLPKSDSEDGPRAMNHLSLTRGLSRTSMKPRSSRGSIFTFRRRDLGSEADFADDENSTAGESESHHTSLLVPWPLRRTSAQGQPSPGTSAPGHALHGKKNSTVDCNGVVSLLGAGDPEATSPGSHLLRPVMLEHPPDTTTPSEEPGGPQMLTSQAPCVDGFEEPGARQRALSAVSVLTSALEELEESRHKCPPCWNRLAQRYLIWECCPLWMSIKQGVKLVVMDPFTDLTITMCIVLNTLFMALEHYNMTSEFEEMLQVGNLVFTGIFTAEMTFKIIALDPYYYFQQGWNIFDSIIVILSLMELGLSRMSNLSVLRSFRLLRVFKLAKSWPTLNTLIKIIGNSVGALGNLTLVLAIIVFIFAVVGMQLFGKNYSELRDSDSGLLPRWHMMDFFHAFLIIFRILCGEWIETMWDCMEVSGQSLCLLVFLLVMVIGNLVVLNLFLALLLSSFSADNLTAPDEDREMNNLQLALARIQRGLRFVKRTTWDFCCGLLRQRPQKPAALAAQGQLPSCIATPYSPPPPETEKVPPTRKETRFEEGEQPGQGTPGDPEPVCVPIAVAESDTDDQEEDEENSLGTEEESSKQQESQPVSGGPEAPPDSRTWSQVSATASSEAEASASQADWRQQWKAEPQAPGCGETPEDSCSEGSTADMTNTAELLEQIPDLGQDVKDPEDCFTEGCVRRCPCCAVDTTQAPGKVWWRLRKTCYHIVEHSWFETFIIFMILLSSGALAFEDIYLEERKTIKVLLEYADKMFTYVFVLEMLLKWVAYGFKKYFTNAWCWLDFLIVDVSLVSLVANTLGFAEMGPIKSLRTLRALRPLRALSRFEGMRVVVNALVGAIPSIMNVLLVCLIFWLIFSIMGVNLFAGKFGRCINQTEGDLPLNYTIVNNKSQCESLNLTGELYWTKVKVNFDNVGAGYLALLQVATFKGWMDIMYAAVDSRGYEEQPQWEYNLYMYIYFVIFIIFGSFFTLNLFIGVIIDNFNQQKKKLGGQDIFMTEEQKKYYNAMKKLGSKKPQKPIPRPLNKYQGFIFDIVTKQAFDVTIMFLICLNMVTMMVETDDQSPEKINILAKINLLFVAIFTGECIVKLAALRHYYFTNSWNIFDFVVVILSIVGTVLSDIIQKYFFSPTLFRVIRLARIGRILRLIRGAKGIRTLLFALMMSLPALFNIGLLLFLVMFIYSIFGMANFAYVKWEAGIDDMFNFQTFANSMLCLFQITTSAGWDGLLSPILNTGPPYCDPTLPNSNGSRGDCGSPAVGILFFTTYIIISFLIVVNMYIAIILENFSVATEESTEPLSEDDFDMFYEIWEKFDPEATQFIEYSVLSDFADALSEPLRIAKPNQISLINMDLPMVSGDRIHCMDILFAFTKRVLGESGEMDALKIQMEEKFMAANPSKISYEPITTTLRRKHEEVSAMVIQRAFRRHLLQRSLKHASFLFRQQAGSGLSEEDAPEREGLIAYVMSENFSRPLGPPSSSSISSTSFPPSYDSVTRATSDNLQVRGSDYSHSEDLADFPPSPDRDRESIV
T1 sequence (Q15858 whole entry): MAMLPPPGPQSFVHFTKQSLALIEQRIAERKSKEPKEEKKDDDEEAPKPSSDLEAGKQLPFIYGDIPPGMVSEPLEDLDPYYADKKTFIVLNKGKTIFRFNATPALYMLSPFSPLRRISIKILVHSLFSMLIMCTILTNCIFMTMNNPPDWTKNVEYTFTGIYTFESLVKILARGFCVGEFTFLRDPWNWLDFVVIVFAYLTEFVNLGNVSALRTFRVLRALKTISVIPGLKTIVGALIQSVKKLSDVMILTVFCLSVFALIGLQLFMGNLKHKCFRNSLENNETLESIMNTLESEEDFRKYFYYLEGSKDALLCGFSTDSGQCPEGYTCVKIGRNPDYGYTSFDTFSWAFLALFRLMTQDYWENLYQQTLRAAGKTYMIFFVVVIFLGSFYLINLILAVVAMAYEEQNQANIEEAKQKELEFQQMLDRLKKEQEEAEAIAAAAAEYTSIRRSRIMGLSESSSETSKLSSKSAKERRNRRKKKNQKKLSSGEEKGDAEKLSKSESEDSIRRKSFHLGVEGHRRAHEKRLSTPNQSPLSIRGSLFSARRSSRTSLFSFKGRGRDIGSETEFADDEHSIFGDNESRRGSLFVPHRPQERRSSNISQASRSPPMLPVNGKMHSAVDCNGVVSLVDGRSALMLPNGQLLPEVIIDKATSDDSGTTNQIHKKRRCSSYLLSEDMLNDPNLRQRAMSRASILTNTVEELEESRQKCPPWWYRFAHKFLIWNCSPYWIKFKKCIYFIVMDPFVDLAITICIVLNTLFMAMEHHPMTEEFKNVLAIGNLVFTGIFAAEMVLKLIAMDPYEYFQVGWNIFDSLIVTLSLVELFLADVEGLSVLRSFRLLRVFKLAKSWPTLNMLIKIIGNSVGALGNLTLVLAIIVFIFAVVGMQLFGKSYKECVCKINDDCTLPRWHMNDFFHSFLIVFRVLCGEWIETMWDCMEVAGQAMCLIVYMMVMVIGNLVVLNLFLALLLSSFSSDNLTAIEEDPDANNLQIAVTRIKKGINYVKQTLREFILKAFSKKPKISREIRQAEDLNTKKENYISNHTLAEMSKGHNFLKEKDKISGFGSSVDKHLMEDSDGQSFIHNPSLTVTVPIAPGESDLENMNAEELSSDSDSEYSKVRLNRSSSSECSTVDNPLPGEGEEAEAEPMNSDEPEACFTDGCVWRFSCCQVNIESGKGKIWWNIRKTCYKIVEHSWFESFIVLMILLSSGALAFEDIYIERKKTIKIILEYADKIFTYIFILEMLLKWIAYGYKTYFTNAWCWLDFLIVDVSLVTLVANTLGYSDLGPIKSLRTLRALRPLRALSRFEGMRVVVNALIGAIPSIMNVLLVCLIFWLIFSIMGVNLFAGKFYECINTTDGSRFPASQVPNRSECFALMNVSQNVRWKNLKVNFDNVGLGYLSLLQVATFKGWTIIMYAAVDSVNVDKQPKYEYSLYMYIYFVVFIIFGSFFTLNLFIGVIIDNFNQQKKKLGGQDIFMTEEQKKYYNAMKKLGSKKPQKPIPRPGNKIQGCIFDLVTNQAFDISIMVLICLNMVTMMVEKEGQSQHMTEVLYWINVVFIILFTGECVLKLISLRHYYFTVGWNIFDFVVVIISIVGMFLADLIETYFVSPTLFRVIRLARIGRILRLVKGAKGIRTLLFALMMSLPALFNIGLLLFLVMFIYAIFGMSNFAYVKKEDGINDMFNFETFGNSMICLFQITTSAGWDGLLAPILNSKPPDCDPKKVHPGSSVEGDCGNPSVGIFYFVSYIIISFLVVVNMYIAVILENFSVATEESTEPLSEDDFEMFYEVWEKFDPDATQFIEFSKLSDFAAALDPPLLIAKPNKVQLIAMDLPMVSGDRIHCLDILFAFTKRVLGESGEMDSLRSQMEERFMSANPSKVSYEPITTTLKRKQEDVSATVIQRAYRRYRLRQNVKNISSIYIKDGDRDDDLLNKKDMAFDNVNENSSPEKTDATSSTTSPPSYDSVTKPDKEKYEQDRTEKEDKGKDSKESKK

Consider `C[C@H](c1cccc(C#CC2(N)CCCCC2)c1)n1c(=O)oc2cc(S(=O)(=O)Nc3cccc(F)n3)c(F)cc21` [Ex21-4, 3-[(1R)-1-{3-[(1-aminocyclohexyl)-ethynyl]phenyl}ethyl]-5-fluoro-N-(6-fluoropyridin-2-yl)-2-oxo-2,3-dihydro-1,3-benzoxazole-6-sulfonamide], for which, in test [1], the IC50 came to 226 nM. Moreover, the “ratio of Nav 1.5:Nav 1.7 potency” value in test [2] was found to be 45.

Turning to `CC(N)C#Cc1cccc([C@@H](C)n2c(=O)oc3cc(S(=O)(=O)Nc4cccc(F)n4)c(F)cc32)c1` (stereo partly drawn) [Ex21-5, 3-{(1R)-1-[3-(3-aminobut-1-yn-1-yl)phenyl]ethyl}-5-fluoro-N-(6-fluoropyridin-2-yl)-2-oxo-2,3-dihydro-1,3-benzoxazole-6-sulfonamide], in test [1], the IC50 was found to be 885 nM. Moreover, the “ratio of Nav 1.5:Nav 1.7 potency” value in test [2] was found to be 34.

For `C[C@H](c1cccc(C#CCNC2CCCCC2)c1)n1c(=O)oc2cc(S(=O)(=O)Nc3cccc(F)n3)c(F)cc21` [Ex21-6, 3-[(1R)-1-{3-[3-(cyclohexylamino)prop-1-yn-1-yl]phenyl}ethyl]-5-fluoro-N-(6-fluoropyridin-2-yl)-2-oxo-2,3-dihydro-1,3-benzoxazole-6-sulfonamide], the IC50 in test [1] stood at 382 nM. In test [2], the “ratio of Nav 1.5:Nav 1.7 potency” value is on record as 27.

Turning to `C[C@H](c1cccc(C#CCN2CCCC2)c1)n1c(=O)oc2cc(S(=O)(=O)Nc3cccc(F)n3)c(F)cc21` [Ex21-7, 5-fluoro-N-(6-fluoropyridin-2-yl)-2-oxo-3-[(1R)-1-{3-[3-(pyrrolidin-1-yl)prop-1-yn-1-yl]phenyl}ethyl]-2,3-dihydro-1,3-benzoxazole-6-sulfonamide], in test [1], the IC50 is 337 nM. Moreover, the “ratio of Nav 1.5:Nav 1.7 potency” value in test [2] worked out at 89.

Consider `C[C@H](c1cccc(C#CC2CCCCN2)c1)n1c(=O)oc2cc(S(=O)(=O)Nc3cccc(F)n3)c(F)cc21` (stereo partly drawn) [Ex21-9, 5-fluoro-N-(6-fluoropyridin-2-yl)-2-oxo-3-{(1R)-1-[3-(piperidin-2-ylethynyl)phenyl]ethyl}-2,3-dihydro-1,3-benzoxazole-6-sulfonamide], for which the IC50 in test [1] stood at 407 nM. Besides, the “ratio of Nav 1.5:Nav 1.7 potency” value in test [2] stood at 74.

With `C[C@H](c1cccc(C#CC2CCCN2)c1)n1c(=O)oc2cc(S(=O)(=O)Nc3cccc(F)n3)c(F)cc21` (stereo partly drawn) [Ex21-10, 5-fluoro-N-(6-fluoropyridin-2-yl)-2-oxo-3-{(1R)-1-[3-(pyrrolidin-2-ylethynyl)phenyl]ethyl}-2,3-dihydro-1,3-benzoxazole-6-sulfonamide], in test [1], the IC50 was 342 nM. Moreover, the “ratio of Nav 1.5:Nav 1.7 potency” value in test [2] amounted to 88.

`C[C@H](c1cccc(C#CCN2CCNCC2)c1)n1c(=O)oc2cc(S(=O)(=O)Nc3cccc(F)n3)c(F)cc21` [Ex21-11, 5-fluoro-N-(6-fluoropyridin-2-yl)-2-oxo-3-[(1R)-1-{3-[3-(piperazin-1-yl)prop-1-yn-1-yl]phenyl}ethyl]-2,3-dihydro-1,3-benzoxazole-6-sulfonamide]: the IC50 in test [1] came to 189 nM. For the same compound, the “ratio of Nav 1.5:Nav 1.7 potency” value in test [2] was 137.

Take `C[C@H](c1cccc(C#CC2(N)CC2)c1)n1c(=O)oc2cc(S(=O)(=O)Nc3cccc(F)n3)c(F)cc21` [Ex21-12, 3-[(1R)-1-{3-[(1-aminocyclopropyl)ethynyl]phenyl}ethyl]-5-fluoro-N-(6-fluoropyridin-2-yl)-2-oxo-2,3-dihydro-1,3-benzoxazole-6-sulfonamide]: the IC50 in test [1] is 258 nM. The “ratio of Nav 1.5:Nav 1.7 potency” value in test [2] stood at 116.

As for `C[C@H](c1cccc(C#CCN2CCC2)c1)n1c(=O)oc2cc(S(=O)(=O)Nc3cccc(F)n3)c(F)cc21` [Ex21-13, 3-[(1R)-1-{3-[3-(azetidin-1-yl)prop-1-yn-1-yl]phenyl}ethyl]-5-fluoro-N-(6-fluoropyridin-2-yl)-2-oxo-2,3-dihydro-1,3-benzoxazole-6-sulfonamide], the IC50 in test [1] was determined as 116 nM. Moreover, in test [2], the “ratio of Nav 1.5:Nav 1.7 potency” value was determined as 258.

(Values after patent US9624208B2, “Benzoxazolinone compounds with selective activity in voltage-gated sodium channels” (Merck Sharp & Dohme Corp., priority 2012, dated 2017).)
